These are literature values, as cited in US20160354326A1, “LOCAL ANESTHETIC SOLUTION FOR DENTAL AND/OR CONTRAST MEDIA USE” (priority 2014, published 2016).

Each structure is given as a SMILES string.

The conditions of this data set: dissolved in solution; sucrose standard = 1.

As for `OC[C@H]1O[C@@](CO)(O[C@H]2O[C@H](CO)[C@@H](O)[C@H](O)[C@H]2O)[C@@H](O)[C@@H]1O` [Sucrose], the “sweetness perception rating (times the sweetness of sucrose in solution)” value (from here on “sweetness perception rating”) is recorded as 1.
Turning to `O=C(CO)[C@@H](O)[C@H](O)[C@H](O)CO` [fructose], the “sweetness perception rating” value is on record as 1.7.
Take `OC[C@@H](O)[C@@H](O)[C@H](O)[C@@H](O)CO` [Sorbitol]: the “sweetness perception rating” value is recorded as 0.6.
